Laboratory results taken from PubChem BioAssay AID1963851 (Molecular Pharmacology Branch, DTP, NCI, 2024).

System: 188146-221-R-J1-PDC complex spheroid viability
Test: Anticancer human tumor 188146-221-R-J1-PDC patient-derived colon adenocarcinoma cell line growth inhibition [POLQ]
Conditions: for IC50: curve of first compound; for viability, T/C: stronger effect = lower value
Experimental: Multicellular complex tumor spheroid response to Polymerase (POL) inhibitors (novobiocin, ART-558, RP6685) in combination with a variety of drugs and investigational agents in selected tumor cell lines
The POL inhibitors (novobiocin, ART-558, and RP6685) were evaluated both individually and in combination with standard of care and investigational anticancer small molecules within a complex spheroid model of solid tumors. . Complex spheroids include a stromal component modeled by human endothelial cells (HUVEC) and fibroblasts modeled by human mesenchymal stem cells (MSCs). The concentration ranges selected for each drug and investigational agent were based upon clinically achievable concentrations if the clinical Cmax of the agent was known.
Compounds. The drugs and investigational agents: novobiocin (NSC847541), ART-558 (NSC835418), RP-6685 (NSC848927), peposertib (NSC802822), ceralasertib (NSC780249), elimusertib (NSC800525), camonsertib (NSC841442), AZD-1390 (NSC803789), olaparib (NSC753686), talazoparib (NSC767125), rucaparib (NSC756644), sotorasib (NSC818433), MRTX-1133 (NSC836407), SN-38 (NSC673596), topotecan (NSC609699), epotoside (NSC141540), doxorubicin (NSC123127), gemcitabine (NSC613327), 5-fluorouracil (NSC19893), paclitaxel (NSC125973), vemurafenib (NSC761431), MSA-2 (NSC828583), SN-011 (NSC837082), adavosertib (NSC754352), prexasertib (NSC758257), carboplatin (NSC241240) and oxaliplatin (NSC266046), were obtained from the National Cancer Institute (NCI) Developmental Therapeutics Program Chemical Repository (21). The FDA-approved anticancer drug set is available from the Developmental Therapeutics Program at https://dtp.cancer.gov/organization/dscb/obtaining/. […] The stock solutions were prepared in dimethyl sulfoxide (DMSO, Sigma-Aldrich, St. Louis, MO, cat. D2650), except for the platinum compounds which were prepared in saline (Quality Biological, Gaithersburg, MD, cat. 114-055-101), at 800-fold the tested concentration and stored at -70 degrees C prior to their use. All drugs and investigational agents were tested over a range starting from a high concentration at or near the clinical Cmax and decreasing in half-log increments. If the clinical Cmax for an agent had not been determined, the highest concentration tested was 10 microM, except for SN-38, which was tested at a high concentration of 1 microM.
Cell Culture. All cells were maintained in an incubator at 37 degrees C and 5% CO2 with 95% humidity. The PDC lines were cultured according to standard operating procedures established by the NCI PDMR (https://pdmr.cancer.gov). Table 3 of the manuscript, lists the cell lines along with the number of the three cell types plated to form the mct-spheroids and media for tumor cell growth. After thawing, all PDC lines, except 997537-175-T-J1-PDC and 415267-285-R-J2-PDC, were cultured in Matrigel-coated flasks prepared with a working solution of 1X Ham's F-12 nutrient mix, without supplementation (Thermo Fisher Scientific, cat. 11765054), 100 U/mL penicillin-streptomycin (Thermo Fisher Scientific, cat. 15140122), and 2.5% Matrigel (Corning Inc., Corning, NY, cat. 354248) for the first three passages. The two PDC lines 997537-175-T-J1-PDC and 415267-285-R-J2-PDC were cultured on uncoated flasks. The 857933-349-R-J2-PDC line was cultured in 6C/Colon 1B media containing advanced DMEM/F-12 (Thermo Fisher Scientific, cat. 12634028), 10 mM HEPES (Thermo Fisher Scientific, cat. 15630080), 1X GlutaMAX supplement (Thermo Fisher Scientific, cat. 35050061), 0.1 mg/mL primocin (InvivoGen, San Diego, CA, cat. ant-pm-2), 10% defined fetal bovine serum, heat inactivated (HyClone Laboratories Inc., Logan, UT, cat. SH30070.03HI), 50% L-WRN conditioned media (ATCC, cat. CRL-3276), 1.25 mM N-Acetyl-L-cysteine (Sigma-Aldrich, cat. A9165), 10 mM nicotinamide (Sigma-Aldrich, cat. N0636), 1X B-27 supplement (Thermo Fisher Scientific, cat. 17504044), 1X N-2 supplement (Thermo Fisher Scientific, cat. […]

[1] = second compound 0.0316 µM, first compound 0.0316 µM
[2] = second compound 0.0316 µM, first compound 0.1 µM
[3] = second compound 0.0316 µM, first compound 0.316 µM
[4] = second compound 0.0316 µM, first compound 1 µM
[5] = second compound 0.0316 µM, first compound 3.16 µM
[6] = second compound 0.0316 µM, first compound 10 µM
[7] = second compound 0.1 µM, first compound 0.0316 µM
[8] = second compound 0.1 µM, first compound 0.1 µM
[9] = second compound 0.1 µM, first compound 0.316 µM
[10] = second compound 0.1 µM, first compound 1 µM
[11] = second compound 0.1 µM, first compound 3.16 µM
[12] = second compound 0.1 µM, first compound 10 µM
[13] = second compound 0.316 µM, first compound 0.0316 µM
[14] = second compound 0.316 µM, first compound 0.1 µM
[15] = second compound 0.316 µM, first compound 0.316 µM
[16] = second compound 0.316 µM, first compound 1 µM
[17] = second compound 0.316 µM, first compound 3.16 µM
[18] = second compound 0.316 µM, first compound 10 µM
[19] = second compound 1 µM, first compound 0.0316 µM
[20] = second compound 1 µM, first compound 0.1 µM
[21] = second compound 1 µM, first compound 0.316 µM
[22] = second compound 1 µM, first compound 1 µM
[23] = second compound 1 µM, first compound 3.16 µM
[24] = second compound 1 µM, first compound 10 µM
[25] = second compound 3.16 µM, first compound 0.0316 µM
[26] = second compound 3.16 µM, first compound 0.1 µM
[27] = second compound 3.16 µM, first compound 0.316 µM
[28] = second compound 3.16 µM, first compound 1 µM
[29] = second compound 3.16 µM, first compound 3.16 µM
[30] = second compound 3.16 µM, first compound 10 µM
[31] = second compound 10 µM, first compound 0.0316 µM
[32] = second compound 10 µM, first compound 0.1 µM
[33] = second compound 10 µM, first compound 0.316 µM
[34] = second compound 10 µM, first compound 1 µM
[35] = second compound 10 µM, first compound 3.16 µM
[36] = second compound 10 µM, first compound 10 µM
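Also: spheroids exposed to compounds for seven days.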
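For viability, T/C in this document: 100% = DMSO vehicle control viability.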

COc1cc2cc(C(=O)CCC(=O)O)sc2cc1OC + Nc1ccc(C#CCN(C(=O)Cc2ncc(C(F)(F)F)cc2C(F)(F)F)c2ccc(F)cc2)nn1
IC50 (second compound 0.0316 µM): > 10000 nM
IC50 (second compound 0.1 µM): > 10000 nM
IC50 (second compound 0.316 µM): > 10000 nM
IC50 (second compound 1 µM): > 10000 nM
IC50 (second compound 3.16 µM): > 10000 nM
IC50 (second compound 10 µM): > 10000 nM
viability, T/C [1]: 115%
viability, T/C [2]: 102%
viability, T/C [3]: 96.4%
viability, T/C [4]: 119%
viability, T/C [5]: 90.2%
viability, T/C [6]: 105%
viability, T/C [7]: 105%
viability, T/C [8]: 115%
viability, T/C [9]: 107%
viability, T/C [10]: 96.2%
viability, T/C [11]: 118%
viability, T/C [12]: 102%
viability, T/C [13]: 109%
viability, T/C [14]: 100%
viability, T/C [15]: 89.3%
viability, T/C [16]: 107%
viability, T/C [17]: 107%
viability, T/C [18]: 97.4%
viability, T/C [19]: 117%
viability, T/C [20]: 116%
viability, T/C [21]: 106%
viability, T/C [22]: 96.3%
viability, T/C [23]: 104%
viability, T/C [24]: 102%
viability, T/C [25]: 105%
viability, T/C [26]: 114%
viability, T/C [27]: 96.8%
viability, T/C [28]: 119%
viability, T/C [29]: 109%
viability, T/C [30]: 118%
viability, T/C [31]: 101%
viability, T/C [32]: 130%
viability, T/C [33]: 98.5%
viability, T/C [34]: 113%
viability, T/C [35]: 104%
viability, T/C [36]: 120%

COc1cccc2c1C(=O)c1c(O)c3c(c(O)c1C2=O)CC(O)(C(=O)CO)CC3OC1CC(N)C(O)C(C)O1 (centres undefined) + COC1C(OC(N)=O)C(O)C(Oc2ccc3c(O)c(NC(=O)c4ccc(O)c(CC=C(C)C)c4)c(=O)oc3c2C)OC1(C)C
IC50 (second compound 0.0316 µM): 154 nM
IC50 (second compound 0.1 µM): 143 nM
IC50 (second compound 0.316 µM): 162 nM
IC50 (second compound 1 µM): 145 nM
IC50 (second compound 3.16 µM): 106 nM
IC50 (second compound 10 µM): 151 nM
viability, T/C [1]: 90.2%
viability, T/C [2]: 59.5%
viability, T/C [3]: 33.8%
viability, T/C [4]: 13.1%
viability, T/C [5]: 0.29%
viability, T/C [6]: 0.43%
viability, T/C [7]: 91.8%
viability, T/C [8]: 57.5%
viability, T/C [9]: 32.5%
viability, T/C [10]: 11.4%
viability, T/C [11]: 0.37%
viability, T/C [12]: 0.4%
viability, T/C [13]: 92.7%
viability, T/C [14]: 61.1%
viability, T/C [15]: 34%
viability, T/C [16]: 16.4%
viability, T/C [17]: 0.2%
viability, T/C [18]: 0.41%
viability, T/C [19]: 94.9%
viability, T/C [20]: 54%
viability, T/C [21]: 40.1%
viability, T/C [22]: 9.16%
viability, T/C [23]: 0.41%
viability, T/C [24]: 0.44%
viability, T/C [25]: 85.3%
viability, T/C [26]: 47.1%
viability, T/C [27]: 35.4%
viability, T/C [28]: 8.24%
viability, T/C [29]: 0.22%
viability, T/C [30]: 0.55%
viability, T/C [31]: 77.9%
viability, T/C [32]: 56.6%
viability, T/C [33]: 36.5%
viability, T/C [34]: 9.76%
viability, T/C [35]: 0.33%
viability, T/C [36]: 0.51%
